# Measurements reported in a melting point compilation (Tetko et al.; mined from patent text by program, amines drawn as free bases though some values may be those of a salt).
row,SMILES,melting point [°C]
1,CCOP(=O)(OCC)C(O)c1ccc([N+](=O)[O-])cc1 (stereo not given),94 to 95
2,C[C@@H](N[C@@H](Cc1c[nH]cn1)C(=O)O)[C@H](NC(=O)[C@@H](N)CCCCN)C(=O)O,175 to 179
3,CCOC(=O)c1c(N)n(C)c2cc(Cl)ccc12,155 to 157
4,Cc1cc(C(C)(C)CCl)c(C)nn1,57 to 59
5,Fc1ccc(-c2cc(CNc3cc(C4CC=CS4)n[nH]3)n[nH]2)cc1 (stereo not given),128 to 130
6,CCOC(=O)CN(C#N)Cc1cc(-n2cc(C)nc2C)cc(C)c1N,135 to 140
7,CCC1(C)CN(c2c(F)c(N)c3c(=O)c(C(=O)O)cn(C4CC4)c3c2OC)CCC1N (stereo not given),210
8,CC(C)(C)c1cc(C(=NO)c2ccccc2)cc(C(C)(C)C)c1O,151
9,COc1nc(NC(=S)NS(=O)(=O)c2cccnc2)nc(OC)n1,158 to 160
10,O=C(Nc1ccc2cc(CN3CCCC3)ccc2c1)N1CCC(c2ccc(Cl)cc2)CC1,209 to 211
11,CCc1c(CNS(=O)(=O)Cc2cccc(C(F)(F)F)c2)nn(-c2ccc(Cl)cc2Cl)c1-c1ccc(Br)cc1,108
12,CSC[C@H](C)NC(=O)c1c(Cl)cccc1C(=O)Nc1ccc(Cn2nc(C(F)(F)F)cc2C(F)(F)F)nc1C,92
13,Clc1ccccc1-c1cc[nH]n1,93
14,O=C(C[C@H]1CCCO1)N[C@H]1CC[C@H](CCN2CCN(c3nccc4c3CCO4)CC2)CC1,183
15,COC(=O)c1ccc(OCCCN(C(=O)CCC(=O)Nc2ccc(Cl)cc2)c2ccc(Cl)cc2)cc1,128 to 130
16,CC(C)(C)OC(=O)C1CCCN1C(=O)c1ccc2c(Cl)cnc(Cl)c2c1 (racemic),144 to 146
17,CC(=O)Oc1cccc2c1C(=O)c1c(OC(C)=O)cccc1C2C(=O)C1CCCC1,180
18,CCCn1c(COCC)nc2c(N)nc3ccc(OC4CCN(C(=O)C(C)C)CC4)cc3c21,177 to 179
19,CN1C(=O)[C@H](NC(=O)CCNc2ccccc2)N=C(c2ccccc2)c2ccccc21,218 to 221
20,Clc1ccc2nc(-c3ccc(Cl)s3)cn2n1,226 to 230

row,SMILES,melting point [°C]
1,CCCN(C)C(C)CN1CCc2c(c(=O)oc3cc(OC)c(OC)cc23)C1 (stereo not given),81 to 85
2,CC(C)(S)CN1CCN(C(=O)c2ccc(O)cc2)CC1,46
3,Cn1cc(-c2ccc(Cl)cc2Cl)c(=O)cc1C(F)(F)F,205 to 206
4,COC(=O)c1cn(-c2c(Cl)cc(Cl)cc2Cl)nc1C(F)(F)F,107 to 108
5,O=C(O)c1cn(C2CC2)c2c(F)c(N3CCCC(n4ccnn4)C3)c(F)cc2c1=O (stereo not given),239 to 240
6,Cc1ccc(C(=O)OCn2c(Br)c(Br)c(S(=O)(=O)C(F)(F)F)c2-c2ccc(Cl)cc2)cc1,74 to 78
7,CC(=O)Nc1ccc(OC(=O)c2cc(OC(C)=O)ccc2OC(C)=O)cc1,148 to 150
8,COc1ccc(C2CCCCC2)cc1-c1csc(NC(=O)C2CCN(C(=O)c3cnccn3)CC2)n1,129
9,NNC(=C[N+](=O)[O-])NCc1ccc(Cl)nc1,188 to 190
10,COC1=Cc2ccc(Cl)cc2C(O)(C2CCN(C)CC2)c2ccsc21 (stereo not given),200 to 202
11,Nc1n[nH]c2cc(CN3CCN(S(=O)(=O)c4cc5ccc(Cl)cc5s4)CC3=O)ccc12,274 to 276
12,CNc1cc(Cl)c(OC)c([N+](=O)[O-])c1OC,57
13,CCN(CC)C(=O)n1cnc(S(=O)(=O)c2cc(F)c(C#N)cc2F)n1,98
14,Cn1c(=O)c2c(nc(C=Cc3cccc(C(F)(F)F)c3)n2C)n(C)c1=O,232 to 236
15,CC(C)(CNc1nc(Cl)ncc1Cl)NS(C)(=O)=O,143 to 145
16,CCOC(=O)c1c(Cl)nc2ccc(Br)cc2c1Cl,120 to 121
17,O=c1[nH]cccc1Cc1cccc(F)c1,110
18,Cc1ccc2c(c1)CC(=O)c1cc(C(C)C(=O)O)ccc1O2 (stereo not given),128 to 129
19,O=c1[nH]c(-c2ccc(Cl)cc2)c(CN2CCOCC2)s1,206
20,COC(=O)c1ccc(C(O)=CC(=O)c2cc([Si](C)(C)C)ccc2O)cc1,130 to 131

row,SMILES,melting point [°C]
1,CCOC(=O)c1cn(C2CC2)c2nc3cc(N4CCNC(c5ccc(OC)cc5)C4)c(F)cc3cc2c1=O (racemic),199
2,CCOC(=O)c1csc(C#Cc2ccc(OC)c(C34CC5CC(CC(C5)C3)C4)c2)c1,88 to 90
3,CCOC(=O)CCc1c[nH]c2cnc(-n3cnnc3)cc12,215 to 218
4,O=S1(=O)NCNc2ccc(F)cc21,159 to 165
5,Cc1nnc(C(C)C)n1C1CC2CCC(C1)N2CCC(NC(=O)C1CCC(F)(F)CC1)c1ccc(NC(=O)COCC(=O)NCCCCCCCN)cc1 (stereo not given),100 to 102
6,CC1CC=C(c2ccc(C(C)O)cc2)CC1 (stereo not given),65 to 67
7,CC(=NO)c1cccc(N)c1,133
8,O=c1c2cc(F)ccc2ncn1CCN1CC=C(c2c[nH]c3ccccc23)CC1,138
9,CCCCCCCCC(C(=O)O)C(O)(CC(=O)O)C(=O)O (stereo not given),65.8 to 66.7
10,O=C1CN(c2ncc3ncnc(Nc4ccc(F)c(Cl)c4)c3n2)CCN1,244 to 246
11,COc1cc(C2=NNC(=O)Cc3cc4c(cc32)OCO4)ccc1[N+](=O)[O-],267 to 269
12,c1ccc2c(c1)CCOC2,89 to 90
13,CNC(=O)c1ccc(-c2ccc3oc(C4CCN(C(=O)OC(C)C)CC4)nc3c2)cc1F,116 to 120
14,COC(=O)c1cnnc2ccccc12,57 to 58
15,CCOC(=O)OCSCC1=C(C(=O)OCC)C(c2cccc([N+](=O)[O-])c2)C(C(=O)OCC)=C(C)N1 (stereo not given),83 to 85
16,O=C(CNC(=O)C1CCCCC1)c1ccco1,110 to 111
17,CCCCCCCCCNC1=CC(=O)c2c(OC)ccc(OC)c2C1=O,85 to 86
18,Cc1cccc(C)c1N1CC(C)N(c2cccc(C(F)(F)F)c2)C1=N (stereo not given),160 to 166
19,O=S1(=O)CCN2C=CC=C(c3ccc(OCC4CCOCC4)cc3)C2=N1,268 to 269
20,CSCc1ccccc1S(N)(=O)=O,119 to 124

# Next, values leading:
row,melting point [°C],SMILES
1,149 to 150,CC(C)c1ccc2c(c1)c(Sc1ccccc1)c(CCC(=O)O)n2Cc1ccc(Cl)cc1
2,95 to 96,O=[N+]([O-])c1cccnc1NCc1ccc(Cl)cc1
3,69 to 71,Cc1nc(-c2ccc(-c3ccc(C(=O)Nc4cc(OCCN(C)C)c(I)cc4I)cc3)c(C)c2)no1
4,158 to 159,O=C(O)c1ccccc1C=Cc1ccccc1
5,126 to 128,CCc1ccc(-c2c(Cl)c(CCl)nc3sc4c(c23)CCN(C(=O)OCc2ccccc2)C4)cc1
6,196 to 200,NC(=O)CN1C(=O)[C@@H](N)[C@H](c2ccccc2)Sc2ccccc21 (relative stereo)
7,141 to 142,CC(C)c1nn(-c2ccc(C(F)(F)F)cn2)cc1CCCOc1c(Cl)cccc1CC(=O)O
8,135 to 136,Cc1c(Cc2cccc(C(F)(F)F)c2)sc2c(-c3cccc(C(=O)NCCC#N)c3)cccc12
9,223 to 224,COc1ccc(-c2nnc(Nc3ccc(Cl)c(Cl)c3)s2)cc1OCc1ccccc1
10,106 to 109,O=C(O)C1OC(c2ccccc2)=NN1C(=O)CCS (stereo not given)
11,138 to 139,O=C1c2ccccc2C(=O)N1Cc1ccc(I)cc1
12,195 to 198,Cc1cccc(-c2[nH]c(C(C)C)nc2-c2ccc(F)c(-c3cc[nH]n3)c2)n1
13,138 to 140,CC(C(=O)c1cccc(OCc2ccccc2)c1)N1CCC(n2c(=O)[nH]c3ccccc32)CC1 (stereo not given)
14,189,CC1(C)Oc2ccc([N+](=O)[O-])cc2C(n2ccccc2=O)=C1NC(=O)C(F)(F)F
15,205 to 207,CC1(C)Oc2ccc(C#N)cc2[C@@H](NC(=NC#N)N2CCN(Cc3ccccc3)CC2)[C@@H]1O (relative stereo)
16,148,CCCCc1nc(SC)cn1Cc1ccc(-c2ccccc2S(=O)(=O)N=CN(C)C)cc1
17,119 to 121,O=C(NCc1cccnc1)c1ccc2n1Cc1ccccc1N(C(=O)c1ccc(-c3ccccc3CO)cc1)C2
18,139 to 140,Cc1oc(-c2ccccc2)nc1COc1cc(COc2ncccc2C#N)on1

row,melting point [°C],SMILES
1,98 to 100,O=C(Nc1ccc(Oc2ccnc(NCCN3CCCCC3)n2)c2ccccc12)c1cc(F)cc(N2CCOCC2)c1
2,170 to 171,CCOC(=O)c1oc(SC)c2c1CCc1sc(-c3ccccc3)nc1-2
3,128 to 130,CN(C)c1cc(S(=O)(=O)c2ccccc2)cc(Br)n1
4,98,Cc1ccnc(-c2cccnc2)c1OC1SCC(O)C(O)C1O (stereo not given)
5,161 to 163,COc1cc2c(c(Cl)c1Cl)C(=O)C(C)(c1ccccc1)C2 (stereo not given)
6,204 to 206,COc1cnc2sc(S(=O)(=O)Cc3ccccc3)nn2c1=O
7,116 to 117,CCOC(=O)Cc1ccc(-c2nc(COc3cc(CO)on3)c(C)o2)cc1
8,100 to 101,COc1cccc(CN2CCC3(CCc4c3n(C)c3ccccc43)CC2)c1
9,168 to 172,CC(C)CC(=O)N1CCC(c2nc3cc(-c4ccc(-n5cnnn5)cc4F)ccc3o2)CC1
10,209 to 210,CN1C(C(=O)Nc2cncc(Cl)n2)=C(O)c2ccc3ccccc3c2S1(=O)=O
11,66 to 69,COc1ccc(CCc2oc3cccc(OC(C)=O)c3c2C)cc1
12,141 to 142,CCOC(=O)CCCOc1cccc2cc(/C(C)=C/C(=O)Nc3ccc(OC)cc3)oc12
13,128 to 129,COc1cc(COc2nn(-c3ccccc3)cc2C=O)ccc1OCc1csc(N2CCOCC2)n1
14,64,Cc1cc(C)cc(-c2cnn3c(-c4cccc(-c5nnn(CC6CCC6)n5)c4)ccnc23)c1
15,118 to 125,COc1cc(Nc2c(C#N)cnc3cc(-c4cc(CN5CCOCC5)c(CN5CCOCC5)s4)ccc23)c(Cl)cc1Cl
16,303 to 304,N#Cc1ccc(-c2cccc(-c3nc4cc(C#N)ccc4[nH]3)c2)cc1
17,80 to 82.5,CC(CO)c1ccc(-c2ccccc2F)c(F)c1 (stereo not given)
